Reference: US5466716A, “Liposomal trimethylsphingosine” (The Biomembrane Institute, priority 1994, dated 1995)

Experiments:
40 kD platelet protein = assay: thrombin-induced phosphorylation of 40 kD platelet protein; format: cell-based, human; settings: thrombin stimulation, FIG. 9
Method: FIG. 9 depicts the inhibition of γ-thrombin-induced phosphorylation of 40 kD protein of human platelets by sphingosine and TMS. Human platelets (3×10^5 /μl) were prelabeled with ^32 p-phosphoric acid (0.2 mCi/ml) in Tyrode's buffer containing 22 mM trisodium citrate, 1 mg/ml glucose and 3.5 mg/ml bovine serum albumin (pH 6.5) for 75 minutes at 37° C. After centrifugation (600× g, 10 minutes), the platelets were resuspended in Tyrode's buffer (pH 7.2), aliquoted in plastic tubes and pre-incubated at 37° C. for 5 minutes with various concentrations of sphingosine and its derivatives (added as 50% ethanol solutions with a final ethanol concentration of 0.5%). Platelets then were stimulated with thrombin […]. The reactions were stopped after 30 seconds by the addition of 5× sample buffer, the samples were boiled and loaded onto 10% SDS-polyacrylamide gels. The proteins were separated electrophotectically. Lane 1-control without stimulation by thrombin; Lane 2-stimulation by 1 μU/ml of γ-thrombin; Lane 3-stimulated by thrombin but added with 1 μM TMS; Lane 4-stimulated by thrombin but added with 10 μM TMS; Lane 5-stimulated by thrombin but added with 20 μM TMS; Lane 6-stimulated by thrombin but added with 30 μM TMS; Lane 7-stimulated by thrombin but added with 20 μM sphingosine; Lane 8-stimulated by thrombin but included addition of 20 μM N,N-dimethylsphingosine.

erythrocytes = assay: erythrocyte metabolic activity under blood storage conditions; format: cell-based; settings: in vitro, normal blood storage conditions
Excerpt: Similar results can be expected for leukocytes and platelets.

F1 melanoma cells = assay: melanoma F1 cell proliferation (thymidine incorporation); format: cell-based; settings: F1, FIG. 5B
Excerpt: FIGS. 5A and 5B depict the effect of N,N,N-trimethylsphingosine (open circles), N,N-dimethylsphingosine (solid circles) and sphingosine (open squares) on two melanoma cell lines, BL6, a highly malignant cell line (in FIG. 5A) and F1, a cell line of low malignancy, (in FIG. 5B). Cell proliferation was evidenced by tritiated thymidine incorporation into DNA.
(§1) An in vitro assay relying on tritiated thymidine incorporation can be used to ascertain the effect of various compounds on cell proliferation. Briefly, tumor cells are seeded in flat bottom 96 well plates (Corning, N.Y.) at a concentration of 2×10^4 cells per well. The cells are cultured for 2 days in DMEM containing various concentrations of sphingoid, which is added as a PBS solution. The medium then is supplemented with tritiated thymidine at a concentration of 0.5 μCi per well. Following a six hour incubation the cells are collected using the PHD Cell Harvester (Cambridge Technology, Cambridge, Mass.) and amounts of incorporated radioactivity are determined after adding a suitable cell lysing agent and scintillation cocktail, such as ScintiVerse BD (Fisher Scientific, Fairlawn, Calif.) which performs both functions.
Certain cancer cells show a higher metastatic potential and invasive capability than others. For example the BL6 and F10 melanoma cell lines are highly metastatic and invasive. […]

BL6 cells = assay: BL6 lung metastatic deposits in mice; format: in vivo
Excerpt: FIGS. 6A-C depict the effect of N,N,N-trimethylsphingosine on lung metastatic deposits after intravenous injection of BL6 cells into mice. Each graph represents the mean and standard deviation of results obtained in 8 animals. In FIG. 6A the open bars depict the total number of lung colony deposits; the stippled bars depict the number of lung colonies with a diameter of greater than 1 mm; and the solid bars depict the number of lung colonies with a diameter of less than 1 mm. Bars 1-3 depict the number of deposits observed 14 days after injection. Bars 4-6 depict the number of lung colony deposits in animals that received BL6 cells and 1 minute later received 0.2 mg of N,N,N-trimethylsphingosine (TMS). […]
In FIG. 6B the number of lung colonies was determined 16 days after treatment, the treatment consisting of varying doses and routes of administration. […]
In FIG. 6C the dose responsiveness of BL6 metastatic potential to TMS is presented. […] Sixteen days after treatment, the mice were sacrificed, lungs opened and the number of colonies in the lungs were counted under a dissecting microscope.
The effectiveness of TMS in vivo is summarized in the graphs comprising FIG. 6. BL6 cells were injected into mice and metastatic deposits in the lung were assessed after various treatments including route and timing of administration.

MKN-74 cells = assay: comparative effect of reagents on MKN-74 tumor cell growth/differentiation; format: cell-based, human; settings: MKN-74, FIG. 3, compared with DMS, SPN, cAMP derivatives, HMBA
Excerpt: FIG. 3 depicts the comparative effect of various reagents on tumor cell differentiation. MKN-74 cells were exposed to N,N,N-trimethylsphingosine (open squares), N,N-dimethylsphingosine (open circles), 8-chloro-cyclic AMP (open triangles), dibutyryl cyclic AMP (solid triangles), sphingosine (solid circles) and hexamethylenebisacetamide (solid squares).
as §1
MKN-74 cells were exposed to cAMP and derivatives thereof and to HMBA, which are known to inhibit tumor cell growth by differentiation induction.

Structure (SMILES): CCCCCCCCCCCCC/C=C/[C@@H](O)[C@H](CO)[N+](C)(C)C [TMS, N,N,N-trimethylsphingosine]
- inhibition of phosphorylation of the 40 kD platelet protein (40 kD platelet protein): inhibits phosphorylation of the 40 kD platelet protein
- erythrocyte metabolic activity (erythrocytes): retards erythrocyte metabolic activity
- inhibition of cell growth (F1 melanoma cells): more effective than DMS and sphingosine
- dose responsiveness of lung tumor colonization (BL6 cells; FIG. 6B, 6C): distinct dose responsiveness
- suppression of lung colonization and tumor development (BL6 cells; irrespective of route or timing, FIG. 6): effective in suppressing lung colonization and tumor development
- inhibition of tumor cell growth (MKN-74 cells): most effective inhibitor of tumor cell growth
